In patent US8501784B2, “2-pyridone derivatives as neutrophil elastase inhibitors and their use” (Astrazeneca AB, priority 2003, dated 2013):

Biological target: T1, Human Neutrophil Elastase (Homo sapiens, UniProt P08246)
T1 construct: Human Neutrophil Elastase (FINE) purified from serum (Calbiochem art. 324681); purchased Calbiochem 324681; host or cells: natural enzyme, purified from serum
T1 sequence (P08246 30-267): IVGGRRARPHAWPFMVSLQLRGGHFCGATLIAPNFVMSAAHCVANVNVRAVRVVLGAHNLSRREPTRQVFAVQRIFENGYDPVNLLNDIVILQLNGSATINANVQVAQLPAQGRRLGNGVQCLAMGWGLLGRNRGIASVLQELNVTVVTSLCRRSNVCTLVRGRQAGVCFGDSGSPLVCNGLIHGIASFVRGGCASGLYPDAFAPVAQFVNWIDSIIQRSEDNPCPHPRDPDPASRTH
Assay: Human Neutrophil Elastase Quenched-FRET Assay
Format: biochemical
Conditions: HNE purified from serum; substrate MeOSuc-AAPV-AMC; 15 min preincubation, 30 min incubation at room temperature; read-out: Inhibition of Human Neutrophil Elastase IC50
Experimental: Human Neutrophil Elastase Quenched-FRET Assay
HNE was stored in 50 mM NaOAc, 200 mM NaCl, pH 5.5 with added 30% glycerol at −20° C. […] The substrate was stored in DMSO at −20° C. […] The assay buffer constitution was: 100 mM Tris (pH 7.5) and 500 mM NaCl. The enzyme and the compounds were incubated at room temperature for 15 minutes. Then 30 μl substrate in assay buffer was added. The assay was stopped after 30 minutes incubation at room temperature by adding 60 μl stop solution (140 mM acetic acid, 200 mM sodium monochloroacetate, 60 mM sodium acetate, pH 4.3).

SMILES	IC50
Cc1c(-c2ccccc2)cc(C(=O)NCc2ccc(S(C)(=O)=O)cc2)c(=O)n1-c1cccc(C(F)(F)F)c1 [Example 1, 6-Methyl-N-[4-(methylsulfonyl)benzyl]-2-oxo-5-phenyl-1-[3-(trifluoromethyl)phenyl]-1,2-dihydropyridine-3-carboxamide]	47 nM
Cc1c(-c2ccoc2)cc(C(=O)NCc2ccc(S(C)(=O)=O)cc2)c(=O)n1-c1cccc(C(F)(F)F)c1 [Example 2, 5-Furan-3-yl-6-methyl-2-oxo-1-(3-trifluoromethyl-phenyl)-1,2-dihydro-pyridine-3-carboxylic acid 4-methanesulfonyl-benzylamide]	46 nM
COc1ncc(-c2cc(C(=O)NCc3ccc(S(C)(=O)=O)cc3)c(=O)n(-c3cccc(C(F)(F)F)c3)c2C)cn1 [Example 5, 5-(2-Methoxypyrimidin-5-yl)-6-methyl-N-[4-(methylsulfonyl)benzyl]-2-oxo-1-[3-(trifluoromethyl)phenyl]-1,2-dihydropyridine-3-carboxamide]	48 nM
Cc1noc(C)c1-c1cc(C(=O)NCc2ccc(S(=O)(=O)C(C)C)cc2)c(=O)n(-c2cccc(C(F)(F)F)c2)c1C [Example 32, 5-(3,5-Dimethylisoxazol-4-yl)-N-[4-(isopropylsulfonyl)benzyl]-6-methyl-2-oxo-1-[3-(trifluoromethyl)phenyl]-1,2-dihydropyridine-3-carboxamide]	3 nM
Cc1nnc(-c2cc(C(=O)NCc3ccc(S(=O)(=O)C4CC4)cc3)c(=O)n(-c3cccc(C(F)(F)F)c3)c2C)o1 [Example 46, N-[4-(Cyclopropylsulfonyl)benzyl]-6-methyl-5-(5-methyl-1,3,4-oxadiazol-2-yl)-2-oxo-1-[3-(trifluoromethyl)phenyl]-1,2-dihydropyridine-3-carboxamide]	7 nM
Cc1cc(CNC(=O)c2cc(-c3ccnn3C)c(C)n(-c3cccc(C(F)(F)F)c3)c2=O)on1 [Example 91, 6-Methyl-5-(2-methyl-2H-pyrazol-3-yl)-2-oxo-1-(3-trifluoromethyl-phenyl)-1,2-dihydro-pyridine-3-carboxylic acid (3-methyl-isoxazol-5-ylmethyl)-amide]	12 nM
